Experimental data: ChEMBL document CHEMBL1142214, “Synergistic interaction between phenothiazines and antimicrobial agents against Burkholderia pseudomallei” (2007)
In brackets after ≈: the same amount, converted by molar mass.

Columns and labels:
Format in all cases: functional
[1] = system: Burkholderia pseudomallei; test: Antimicrobial activity against Burkholderia pseudomallei KHW in presence of 1000 uM prochlorperazine
[2] = system: Burkholderia pseudomallei; test: Antimicrobial activity against Burkholderia pseudomallei KHW in presence of 31.3 uM omeprazole
[3] = system: Burkholderia pseudomallei; test: Antimicrobial activity against Burkholderia pseudomallei KHW in presence of 500 uM chlorpromazine
[4] = system: Burkholderia pseudomallei; test: Antimicrobial activity against Burkholderia pseudomallei KHW in presence of 62.5 uM chlorpromazine
[5] = system: Burkholderia pseudomallei; test: Antimicrobial activity against Burkholderia pseudomallei KHW in presence of 31.3 uM chlorpromazine
[6] = system: Burkholderia pseudomallei; test: Antimicrobial activity against Burkholderia pseudomallei KHW in presence of 7.8 uM promazine
[7] = system: Burkholderia pseudomallei; test: Antimicrobial activity against Burkholderia pseudomallei KHW in presence of 1000 uM promazine
[8] = system: Burkholderia pseudomallei; test: Antimicrobial activity against Burkholderia pseudomallei KHW
[9] = system: Burkholderia pseudomallei; test: Antimicrobial activity against Burkholderia pseudomallei KHW in presence of 3.9 uM prochlorperazine
[10] = system: Burkholderia pseudomallei; test: Antimicrobial activity against Burkholderia pseudomallei KHW in presence of 125 uM chlorpromazine
[11] = system: Burkholderia pseudomallei; test: Antimicrobial activity against Burkholderia pseudomallei KHW in presence of 31.3 uM prochlorperazine
[12] = system: Burkholderia pseudomallei; test: Antimicrobial activity against Burkholderia pseudomallei KHW in presence of 3.9 uM promazine
[13] = system: Burkholderia pseudomallei; test: Antimicrobial activity against Burkholderia pseudomallei KHW in presence of 125 uM promazine
[14] = system: Burkholderia pseudomallei; test: Antimicrobial activity against Burkholderia pseudomallei KHW in presence of 1000 uM chlorpromazine
[15] = system: Burkholderia pseudomallei; test: Antimicrobial activity against Burkholderia pseudomallei KHW in presence of 250 uM prochlorperazine
[16] = system: Burkholderia pseudomallei; test: Antimicrobial activity against Burkholderia pseudomallei KHW in presence of 125 uM omeprazole
[17] = system: Burkholderia pseudomallei; test: Antimicrobial activity against Burkholderia pseudomallei KHW in presence of 15.6 uM promazine
[18] = system: Burkholderia pseudomallei; test: Antimicrobial activity against Burkholderia pseudomallei KHW in presence of 31.3 uM promazine
[19] = system: Burkholderia pseudomallei; test: Antimicrobial activity against Burkholderia pseudomallei KHW in presence of 250 uM promazine
[20] = system: Burkholderia pseudomallei; test: Antimicrobial activity against Burkholderia pseudomallei KHW in presence of 125 uM prochlorperazine
[21] = system: Burkholderia pseudomallei; test: Antimicrobial activity against Burkholderia pseudomallei KHW in presence of 62.5 uM omeprazole
[22] = system: Burkholderia pseudomallei; test: Antimicrobial activity against Burkholderia pseudomallei KHW in presence of 500 uM prochlorperazine
[23] = system: Burkholderia pseudomallei; test: Antimicrobial activity against Burkholderia pseudomallei KHW in presence of 500 uM omeprazole
[24] = system: Burkholderia pseudomallei; test: Antimicrobial activity against Burkholderia pseudomallei KHW in presence of 7.8 uM prochlorperazine
[25] = system: Burkholderia pseudomallei; test: Antimicrobial activity against Burkholderia pseudomallei KHW in presence of 15.6 uM prochlorperazine
[26] = system: Burkholderia pseudomallei; test: Antimicrobial activity against Burkholderia pseudomallei KHW in presence of 62.5 uM promazine
[27] = system: Burkholderia pseudomallei; test: Antimicrobial activity against Burkholderia pseudomallei KHW in presence of 15.6 uM chlorpromazine
[28] = system: Burkholderia pseudomallei; test: Antimicrobial activity against Burkholderia pseudomallei KHW in presence of 3.9 uM chlorpromazine
[29] = system: Burkholderia pseudomallei; test: Antimicrobial activity against Burkholderia pseudomallei KHW in presence of 15.6 uM omeprazole
[30] = system: Burkholderia pseudomallei; test: Antimicrobial activity against Burkholderia pseudomallei KHW in presence of 250 uM omeprazole
[31] = system: Burkholderia pseudomallei; test: Antimicrobial activity against Burkholderia pseudomallei KHW in presence of 7.8 uM chlorpromazine
[32] = system: Burkholderia pseudomallei; test: Antimicrobial activity against Burkholderia pseudomallei KHW in presence of 7.8 uM omeprazole
[33] = system: Burkholderia pseudomallei; test: Antimicrobial activity against Burkholderia pseudomallei KHW in presence of 3.9 uM omeprazole
[34] = system: Burkholderia pseudomallei; test: Antimicrobial activity against Burkholderia pseudomallei KHW in presence of 62.5 uM prochlorperazine
[35] = system: Burkholderia pseudomallei; test: Antimicrobial activity against Burkholderia pseudomallei KHW in presence of 250 uM chlorpromazine
[36] = system: Burkholderia pseudomallei; test: Antimicrobial activity against Burkholderia pseudomallei KHW in presence of 1000 uM omeprazole
[37] = system: Burkholderia pseudomallei; test: Antimicrobial activity against Burkholderia pseudomallei KHW in presence of 500 uM promazine

`C[C@H]1COc2c(N3CCN(C)CC3)c(F)cc3c(=O)c(C(=O)O)cn1c23.C[C@H]1COc2c(N3CCN(C)CC3)c(F)cc3c(=O)c(C(=O)O)cn1c23.O` [LEVOFLOXACIN] gave an MIC [1] of less than 0.25 µg/mL, an MIC [2] of 2 µg/mL and an MIC [3] of less than 0.25 µg/mL. It also gave an MIC [4] of 2 µg/mL, an MIC [5] of 2 µg/mL and an MIC [6] of 2 µg/mL. For the same compound, the MIC [7] was less than 0.25 µg/mL, the MIC [8] was 2 µg/mL and the MIC [9] was 2 µg/mL. The MIC [10] was 2 µg/mL, the MIC [11] was 2 µg/mL and the MIC [12] was 2 µg/mL. It also gave an MIC [13] of 2 µg/mL, an MIC [14] of less than 0.25 µg/mL and an MIC [15] of 2 µg/mL. The MIC [16] was 2 µg/mL, the MIC [17] was 2 µg/mL and the MIC [18] was 2 µg/mL. The MIC [19] was 2 µg/mL, the MIC [20] was 2 µg/mL and the MIC [21] was 2 µg/mL. For the same compound, the MIC [22] was less than 0.25 µg/mL, the MIC [23] was 2 µg/mL and the MIC [24] was 2 µg/mL. The MIC [25] was 2 µg/mL, the MIC [26] was 2 µg/mL and the MIC [27] was 2 µg/mL. For the same compound, the MIC [28] was 2 µg/mL, the MIC [29] was 2 µg/mL and the MIC [30] was 2 µg/mL. It also gave an MIC [31] of 2 µg/mL, an MIC [32] of 2 µg/mL and an MIC [33] of 2 µg/mL. The MIC [34] was 2 µg/mL.

`CC[C@H]1OC(=O)[C@H](C)[C@@H](O[C@H]2C[C@@](C)(OC)[C@@H](O)[C@H](C)O2)[C@H](C)[C@@H](O[C@@H]2O[C@H](C)C[C@H](N(C)C)[C@H]2O)[C@](C)(O)C[C@@H](C)CN(C)[C@H](C)[C@@H](O)[C@]1(C)O` [AZITHROMYCIN] showed an MIC [1] of less than 0.25 µg/mL, an MIC [2] of 32 µg/mL and an MIC [3] of 8 µg/mL. It also gave an MIC [4] of 32 µg/mL, an MIC [5] of 32 µg/mL and an MIC [6] of 32 µg/mL. For the same compound, the MIC [7] was less than 0.25 µg/mL, the MIC [35] was 16 µg/mL and the MIC [8] was 32 µg/mL (≈ 42.7 µM). For the same compound, the MIC [9] was 32 µg/mL, the MIC [10] was 16 µg/mL and the MIC [11] was 32 µg/mL. For the same compound, the MIC [12] was 32 µg/mL, the MIC [13] was 32 µg/mL and the MIC [14] was less than 0.25 µg/mL. The MIC [15] was less than 0.25 µg/mL, the MIC [16] was 32 µg/mL and the MIC [17] was 32 µg/mL. It also gave an MIC [18] of 32 µg/mL, an MIC [19] of 32 µg/mL and an MIC [20] of 16 µg/mL. The MIC [21] was 32 µg/mL, the MIC [36] was 16 µg/mL and the MIC [37] was 16 µg/mL. For the same compound, the MIC [22] was less than 0.25 µg/mL, the MIC [23] was 16 µg/mL and the MIC [24] was 32 µg/mL. For the same compound, the MIC [25] was 32 µg/mL, the MIC [26] was 32 µg/mL and the MIC [27] was 32 µg/mL. For the same compound, the MIC [28] was 32 µg/mL, the MIC [29] was 32 µg/mL and the MIC [30] was 32 µg/mL. For the same compound, the MIC [31] was 32 µg/mL, the MIC [32] was 32 µg/mL and the MIC [33] was 32 µg/mL. The MIC [34] was 32 µg/mL.

With `CN[C@@H]1[C@H](O)[C@H](NC)[C@H]2O[C@@]3(O)C(=O)C[C@@H](C)O[C@H]3O[C@@H]2[C@H]1O` [SPECTINOMYCIN] the MIC [1] was less than 0.25 µg/mL, the MIC [2] was 256 µg/mL and the MIC [3] was 32 µg/mL. The MIC [4] was 256 µg/mL, the MIC [5] was 256 µg/mL and the MIC [6] was 256 µg/mL. For the same compound, the MIC [7] was less than 0.25 µg/mL, the MIC [35] was 128 µg/mL and the MIC [8] was 256 µg/mL (≈ 770 µM). The MIC [9] was 256 µg/mL, the MIC [10] was 256 µg/mL and the MIC [11] was 256 µg/mL. The MIC [12] was 256 µg/mL, the MIC [13] was 256 µg/mL and the MIC [14] was less than 0.25 µg/mL. It also gave an MIC [15] of 32 µg/mL, an MIC [16] of 256 µg/mL and an MIC [17] of 256 µg/mL. It also gave an MIC [18] of 256 µg/mL, an MIC [20] of 32 µg/mL and an MIC [21] of 256 µg/mL. The MIC [36] was 32 µg/mL, the MIC [22] was less than 0.25 µg/mL and the MIC [24] was 256 µg/mL. For the same compound, the MIC [25] was 256 µg/mL, the MIC [26] was 256 µg/mL and the MIC [27] was 256 µg/mL. For the same compound, the MIC [28] was 256 µg/mL, the MIC [29] was 256 µg/mL and the MIC [31] was 256 µg/mL. The MIC [32] was 256 µg/mL, the MIC [33] was 256 µg/mL and the MIC [34] was 128 µg/mL.
